The results in this text go back to ChEMBL document CHEMBL1649540, “The novel CXCR4 antagonist KRH-3955 is an orally bioavailable and extremely potent inhibitor of human immunodeficiency virus type 1 infection: comparative studies with AMD3100” (Antimicrob Agents Chemother, 2009).

In test [1] the test system is Human immunodeficiency virus 1. Briefly: Antiviral activity against HIV1 89.6 infected in human PBMC assessed as inhibition of viral p24 antigen production after 7 to 10 days by ELISA. The test is classed as functional, organism-based. The settings on record: Human immunodeficiency virus 1, 89.6.
The subject of test [2] is Human immunodeficiency virus 1. Nature of the test: Antiviral activity against HIV1 A018H infected in human PBMC assessed as inhibition of viral p24 antigen production after 7 to 10 days by ELISA. As to conditions: Human immunodeficiency virus 1, A018H. The test is classed as functional, organism-based.
The test system of test [3] is Human immunodeficiency virus 1. Briefly: Antiviral activity against HIV1 JRCSF infected in human PBMC assessed as inhibition of viral p24 antigen production after 7 to 10 days by ELISA. As to conditions: Human immunodeficiency virus 1, JRCSF ISOLATE. The format is functional.
The test system of test [4] is Human immunodeficiency virus 1. Nature of the test: Antiviral activity against HIV1 NL4-3 infected in human PBMC assessed as inhibition of viral p24 antigen production after 7 to 10 days by ELISA. The test is classed as functional, organism-based. The settings on record: Human immunodeficiency virus 1, NL4-3.
For test [5], the system named is Human immunodeficiency virus 1. Nature of the test: Antiviral activity against HIV1 R5 infected in human PBMC assessed as inhibition of viral p24 antigen production after 7 to 10 days by ELISA. The test is classed as functional, organism-based. As to conditions: Human immunodeficiency virus 1, R5.
Test [6] concerns Human immunodeficiency virus 1. Briefly: Antiviral activity against HIV1 X4 infected in human PBMC assessed as inhibition of viral p24 antigen production after 7 to 10 days by ELISA. The format is functional, organism-based. As to conditions: Human immunodeficiency virus 1, X4.
In test [7] the test system is Human immunodeficiency virus 1. Nature of the test: Antiviral activity against HIV1 A018G infected in human PBMC assessed as inhibition of viral p24 antigen production after 7 to 10 days by ELISA. The settings on record: Human immunodeficiency virus 1, A018G. The test is classed as functional, organism-based.
The test system of test [8] is Human immunodeficiency virus 1. Nature of the test: Antiviral activity against HIV1 NL4-3 infected in HEK293 cells assessed as inhibition of viral replication after 2 days. As to conditions: Human immunodeficiency virus 1, NL4-3, HEK293, 48 h. The format is functional, organism-based.
The test system of test [9] is Human immunodeficiency virus 1. Briefly: Antiviral activity against HIV1 HXB2 infected in HEK293 cells assessed as inhibition of viral replication after 2 days. The format is functional, organism-based. As to conditions: Human immunodeficiency virus 1, HXB2, HEK293, 48 h.
Test [10] concerns the target T1, C-X-C chemokine receptor type 4 (Homo sapiens, UniProt P61073). As to conditions: MOLT-4; 1000 nM.
Description: Inhibition of Mab 12G5 binding to CXCR4 expressed in human MOLT4 cells at 1000 nM measured post drug washout by FACS analysis
In test [11] the test system is C-X-C chemokine receptor type 4 (Homo sapiens), P61073 [H281A]. Briefly: Inhibition of Mab 12G5 binding to CXCR4 H281A mutant expressed in HEK293 cells. The format is cell-based.
In test [12] the test system is Human immunodeficiency virus 1. Nature of the test: Antiviral activity against PI-resistant HIV1 HXB2 infected in HEK293 cells assessed as inhibition of viral replication after 2 days. The test is classed as functional, organism-based. The settings on record: Human immunodeficiency virus 1, HXB2, HEK293, 48 h.
Test [13] relates to C-X-C chemokine receptor type 4 (Homo sapiens), P61073 [D181A]. Nature of the test: Inhibition of Mab 12G5 binding to CXCR4 D181A mutant expressed in HEK293 cells. The format is cell-based.
The subject of test [14] is C-X-C chemokine receptor type 4 (Homo sapiens), P61073 [V280A]. Briefly: Inhibition of Mab 12G5 binding to CXCR4 V280A mutant expressed in HEK293 cells. The test is classed as cell-based.
Test [15] deals with Human immunodeficiency virus 1. Briefly: Antiviral activity against NRTI-resistant HIV1 HXB2 infected in HEK293 cells assessed as inhibition of viral replication after 2 days. The format is functional, organism-based. The settings on record: Human immunodeficiency virus 1, HXB2, HEK293, 48 h.
The test system of test [16] is Human immunodeficiency virus 1. Briefly: Antiviral activity against multidrug resistant HIV1 HXB2 infected in HEK293 cells assessed as inhibition of viral replication after 2 days. The test is classed as functional, organism-based. The settings on record: Human immunodeficiency virus 1, HXB2, HEK293, 48 h.
The target in test [17] is T1, C-X-C chemokine receptor type 4. Nature of the test: Displacement of [125I]SDF-1alpha form CXCR4 expressed in CHO cells at 0.1 to 1000 nmol/L by scintillation counting. The format is cell-based.
Test [18] has the same target. As to conditions: MOLT-4; 1000 nM. This is another data set of the same source.
Description: Inhibition of Mab 12G5 binding to CXCR4 expressed in human MOLT4 cells at 1000 nM by FACS analysis
The subject of test [19] is C-X-C chemokine receptor type 4 (Homo sapiens), P61073 [V112A]. Briefly: Inhibition of Mab 12G5 binding to CXCR4 V112A mutant expressed in HEK293 cells. The test is classed as cell-based.
For test [20], the system named is Human immunodeficiency virus 1. Briefly: Antiviral activity against T20-resistant HIV1 NL4-3 infected in HEK293 cells assessed as inhibition of viral replication after 2 days. As to conditions: Human immunodeficiency virus 1, NL4-3, HEK293, 48 h. The format is functional, organism-based.
Test [21] deals with Human immunodeficiency virus 1. Briefly: Antiviral activity against NNRTI-resistant HIV1 HXB2 infected in HEK293 cells assessed as inhibition of viral replication after 2 days. The format is functional, organism-based. The settings on record: Human immunodeficiency virus 1, HXB2, HEK293, 48 h.

Each structure is given as a SMILES string. Calls of active or inactive are those of the source. The rule behind the calls is not given here.

T1 sequence (P61073 whole entry): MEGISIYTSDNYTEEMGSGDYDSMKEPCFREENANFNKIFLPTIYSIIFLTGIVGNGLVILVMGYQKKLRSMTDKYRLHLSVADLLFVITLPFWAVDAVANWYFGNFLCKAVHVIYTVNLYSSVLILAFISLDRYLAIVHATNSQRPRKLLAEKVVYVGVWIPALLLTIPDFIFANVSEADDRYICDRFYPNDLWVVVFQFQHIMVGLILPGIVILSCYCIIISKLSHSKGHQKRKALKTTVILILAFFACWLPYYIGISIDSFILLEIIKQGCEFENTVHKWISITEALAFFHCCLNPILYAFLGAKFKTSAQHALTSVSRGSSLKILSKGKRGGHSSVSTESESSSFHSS
C-X-C chemokine receptor type 4 (Homo sapiens), P61073 [H281A], sequence (P61073 whole entry H281A): as the sequence (P61073 whole entry) above, with H281A counted along it
C-X-C chemokine receptor type 4 (Homo sapiens), P61073 [V112A], sequence (P61073 whole entry V112A): as the sequence (P61073 whole entry) above, with V112A counted along it
C-X-C chemokine receptor type 4 (Homo sapiens), P61073 [V280A], sequence (P61073 whole entry V280A): as the sequence (P61073 whole entry) above, with V280A counted along it
C-X-C chemokine receptor type 4 (Homo sapiens), P61073 [D181A], sequence (P61073 whole entry D181A): as the sequence (P61073 whole entry) above, with D181A counted along it

As for `Cc1cn([C@H]2C[C@H](N=[N+]=[N-])[C@@H](CO)O2)c(=O)[nH]c1=O` [ZIDOVUDINE], the EC50 turned out to be 7.4 nM in [1]; 1.9 nM in [2]; 0.96 nM in test [3]; 11 nM in test [4]; 6.2 nM in test [5]; 8 nM in [6]. For the same compound, the EC50 in [7] is 87 µM.

For the compound `NCCCCN(Cc1nc2ccccc2[nH]1)[C@H]1CCCc2cccnc21` [MAVORIXAFOR], the EC50 in test [1] was 55 nM; in [3], over 200 nM; in test [4], 35 nM; in test [5], over 200 nM; in test [6], 15 nM.

Turning to `CC(C)(C)NC(=O)[C@@H]1C[C@@H]2CCCC[C@@H]2CN1C[C@@H](O)[C@H](Cc1ccccc1)NC(=O)[C@H](CC(N)=O)NC(=O)c1ccc2ccccc2n1`, the EC50 stood at 9.9 nM in test [1]; 2.6 nM in test [3]; 9 nM in test [4]; 8 nM in test [5]; 29 nM in test [6].

As for `COC[C@@H](c1ccc(C(F)(F)F)cc1)N1CCN(C2(C)CCN(C(=O)c3c(C)ncnc3C)CC2)C[C@@H]1C` [VICRIVIROC], the EC50 in [1] is over 1000 nM; in test [3], 0.37 nM; in test [4], over 1000 nM; in test [5] it was 1.2 nM; in test [6], over 1000 nM.

Consider `c1cc(CN2CCCNCCNCCCNCC2)ccc1CN1CCCNCCNCCCNCC1` [PLERIXAFOR], for which the EC50 was 44 nM in [1]; 38 nM in test [2]; over 200 nM in test [3]; 41 nM in test [4]; over 200 nM in test [5]; 15 nM in test [6]. The EC50 in test [7] came to 0.032 µM. In addition, the IC50 in test [8] amounted to 4.6 nM; in [9], 6.2 nM; in test [12], 9.2 nM; in [15], 9 nM; in [16] it was 5.3 nM; in test [20] it was 2.3 nM. For the same compound, the IC50 in [21] was 7 nM. The inhibition result in test [10] was “inactive”. Also, the IC90 in test [11] is 572 nM; in [13], 796 nM; in test [14] it was 821 nM; in [19] it was 821 nM. Moreover, the result in test [17] was inactive. Also, the inhibition entry in [18] is “Active”.
